Data reported in ChEMBL document CHEMBL1136819, “Synthesis, anticholinesterase activity and structure-activity relationships of m-Aminobenzoic acid derivatives” (Bioorg Med Chem Lett, 2003).

Legend:
[1] = Partition coefficient (logP); type: physicochemical; settings: octanol/water
[2] = Lethal dose was reported; type: ADME
Acetylcholinesterase [3] = target: T1, Acetylcholinesterase (Torpedo californica, UniProt P04058)
Description: Inhibitory activity against acetylcholinesterase (AChE) from Torpedo californica (Reversible type of inhibition)

Acetylcholinesterase [4] = target: T1, Acetylcholinesterase; assay: Inhibitory activity against acetylcholinesterase (AChE) from Torpedo californica (Irreversible type of inhibition); parameters: species or system Tetronarce californica

T1 sequence (P04058 whole entry): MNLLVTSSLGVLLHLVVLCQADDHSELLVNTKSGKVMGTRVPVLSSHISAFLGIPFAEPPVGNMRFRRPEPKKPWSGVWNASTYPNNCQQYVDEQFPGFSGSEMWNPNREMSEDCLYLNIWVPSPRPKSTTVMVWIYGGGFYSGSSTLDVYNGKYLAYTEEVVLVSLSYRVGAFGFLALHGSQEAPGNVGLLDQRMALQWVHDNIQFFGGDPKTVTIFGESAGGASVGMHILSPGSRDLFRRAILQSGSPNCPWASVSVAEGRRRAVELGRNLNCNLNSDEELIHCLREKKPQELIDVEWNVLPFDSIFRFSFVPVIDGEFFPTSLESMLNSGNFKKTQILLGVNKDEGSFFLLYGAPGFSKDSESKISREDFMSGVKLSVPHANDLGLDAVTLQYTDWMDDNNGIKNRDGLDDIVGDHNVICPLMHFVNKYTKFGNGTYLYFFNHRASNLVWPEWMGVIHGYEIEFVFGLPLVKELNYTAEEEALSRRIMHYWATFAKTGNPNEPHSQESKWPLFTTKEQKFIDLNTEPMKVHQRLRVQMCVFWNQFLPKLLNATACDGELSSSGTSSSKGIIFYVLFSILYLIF

Row | Compound | logP [1] | LD50 [2] | IC50 (Acetylcholinesterase [3]) | IC50 (Acetylcholinesterase [4])
1 | O=C(O)CCC(=O)Nc1cccc(C(=O)O)c1 | 1.41 | > 1000 mg/kg | 92.5 nM | –
2 | O=C(O)c1cccc(N2C(=O)C=CC2=O)c1 | 1.48 | – | – | 256 nM
3 | O=C(O)c1cccc(N2C(=O)CCC2=O)c1 | 1.81 | > 1000 mg/kg | 33.4 nM | –
4 | O=C(O)/C=C\C(=O)Nc1cccc(C(=O)O)c1 | 1.09 | > 1000 mg/kg | – | 357 nM
